Measurements from publication PMC10033409, “Autoregulation of GPCR signalling through the third intracellular loop” (Nature, 2023).
Several values for one entry are separate records, joined by “and”; a condition that tells them apart may be missing. Identical values can stand only once.

Target: β2AR (Homo sapiens, UniProt P07550)
Experiment: Radiolabelled antagonist-binding assay (saturation);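 also: membranes expressing β2AR constructs, equilibrated with radioligand on ice, bound ligand retained on GF/C filters, Bmax normalized to membrane protein from a DC assay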
Parameters: HA; expressed in transfected cells; host or cells: crude membrane extracts of transfected cells; Bmax / 125I-Cyanopindolol saturation binding signal: unit not given here
Settings: for Bmax / fmol 125I-Cyanopindolol/mg sample: replicates 1-3 and Average; for fmol 125I-Cyanopindolol/mg sample, Fit: fitted curve
[1] = Wild-Type + Gs-peptide, 125I-Cyanopindolol 0.000239059 nM
[2] = Wild-Type + Gs-peptide, 125I-Cyanopindolol 0.0167722 nM
[3] = Wild-Type + Gs-peptide, 125I-Cyanopindolol 0.0344858 nM
[4] = Wild-Type + Gs-peptide, 125I-Cyanopindolol 0.073983 nM
[5] = Wild-Type + Gs-peptide, 125I-Cyanopindolol 0.202201 nM
[6] = Wild-Type + Gs-peptide, 125I-Cyanopindolol 0.415365 nM
[7] = Wild-Type + Gs-peptide, 125I-Cyanopindolol 0.83063 nM
[8] = Wild-Type + Gs-peptide, 125I-Cyanopindolol 1.64238 nM

## [^125I](±)-cyanopindolol
Wild-Type + 30 µM Gq-peptide, 0.0283 nM, Average
  125I-Cyanopindolol saturation binding signal: 147.58
Wild-Type + 30 µM Gq-peptide, 0.0283 nM, Fit
  125I-Cyanopindolol saturation binding signal: 291.67
Wild-Type + 30 µM Gq-peptide, 0.0283 nM, experiments 1-3
  125I-Cyanopindolol saturation binding signal: 132.79 and 160.83 and 149.12
Wild-Type + 30 µM Gq-peptide, 0.0474 nM, Average
  125I-Cyanopindolol saturation binding signal: 534.47
Wild-Type + 30 µM Gq-peptide, 0.0474 nM, Fit
  125I-Cyanopindolol saturation binding signal: 446.28
Wild-Type + 30 µM Gq-peptide, 0.0474 nM, experiments 1-3
  125I-Cyanopindolol saturation binding signal: 334.07 and 648.49 and 620.85
Wild-Type + 30 µM Gq-peptide, 0.10 nM, Average
  125I-Cyanopindolol saturation binding signal: 767.43
Wild-Type + 30 µM Gq-peptide, 0.10 nM, Fit
  125I-Cyanopindolol saturation binding signal: 753.07
Wild-Type + 30 µM Gq-peptide, 1.85 nM, Average
  125I-Cyanopindolol saturation binding signal: 1934.67
Wild-Type + 30 µM Gq-peptide, 1.85 nM, Fit
  125I-Cyanopindolol saturation binding signal: 1934.64
Wild-Type + Gs-pep
  Bmax: 2030.45 and 2045.98 and 1796.67
Wild-Type + Gs-pep, mean
  Bmax: 1957.70
[1]
  fmol 125I-Cyanopindolol/mg sample, Fit: 0.00E+00 fmol/mg sample
  fmol 125I-Cyanopindolol/mg sample: -0.7197 fmol/mg sample and 0.9706 fmol/mg sample and -1.162 fmol/mg sample
Wild-Type + Gs-peptide, 125I-Cyanopindolol 0.000239059 nM, mean
  fmol 125I-Cyanopindolol/mg sample: -0.3038 fmol/mg sample
[2]
  fmol 125I-Cyanopindolol/mg sample, Fit: 4.58E+02 fmol/mg sample
  fmol 125I-Cyanopindolol/mg sample: 412.161 fmol/mg sample and 473.943 fmol/mg sample and 418.268 fmol/mg sample
Wild-Type + Gs-peptide, 125I-Cyanopindolol 0.0167722 nM, mean
  fmol 125I-Cyanopindolol/mg sample: 434.79 fmol/mg sample
[3]
  fmol 125I-Cyanopindolol/mg sample, Fit: 7.83E+02 fmol/mg sample
  fmol 125I-Cyanopindolol/mg sample: 735.259 fmol/mg sample and 854.634 fmol/mg sample and 743.19 fmol/mg sample
Wild-Type + Gs-peptide, 125I-Cyanopindolol 0.0344858 nM, mean
  fmol 125I-Cyanopindolol/mg sample: 777.694 fmol/mg sample
[4]
  fmol 125I-Cyanopindolol/mg sample, Fit: 1.18E+03 fmol/mg sample
  fmol 125I-Cyanopindolol/mg sample: 1168.59 fmol/mg sample and 1355.16 fmol/mg sample and 1153.34 fmol/mg sample
Wild-Type + Gs-peptide, 125I-Cyanopindolol 0.073983 nM, mean
  fmol 125I-Cyanopindolol/mg sample: 1225.7 fmol/mg sample
[5]
  fmol 125I-Cyanopindolol/mg sample, Fit: 1.61E+03 fmol/mg sample
  fmol 125I-Cyanopindolol/mg sample: 1680.99 fmol/mg sample and 1767.57 fmol/mg sample and 1409.36 fmol/mg sample
Wild-Type + Gs-peptide, 125I-Cyanopindolol 0.202201 nM, mean
  fmol 125I-Cyanopindolol/mg sample: 1619.31 fmol/mg sample
[6]
  fmol 125I-Cyanopindolol/mg sample, Fit: 1.79E+03 fmol/mg sample
  fmol 125I-Cyanopindolol/mg sample: 1709.61 fmol/mg sample and 1882.35 fmol/mg sample and 1548.71 fmol/mg sample
Wild-Type + Gs-peptide, 125I-Cyanopindolol 0.415365 nM, mean
  fmol 125I-Cyanopindolol/mg sample: 1713.56 fmol/mg sample
[7]
  fmol 125I-Cyanopindolol/mg sample, Fit: 1.88E+03 fmol/mg sample
  fmol 125I-Cyanopindolol/mg sample: 1837.2 fmol/mg sample and 2069.95 fmol/mg sample and 1681.21 fmol/mg sample
Wild-Type + Gs-peptide, 125I-Cyanopindolol 0.83063 nM, mean
  fmol 125I-Cyanopindolol/mg sample: 1862.79 fmol/mg sample
[8]
  fmol 125I-Cyanopindolol/mg sample, Fit: 1.93E+03 fmol/mg sample
  fmol 125I-Cyanopindolol/mg sample: 2102.36 fmol/mg sample and 2003.58 fmol/mg sample and 1852.88 fmol/mg sample
Wild-Type + Gs-peptide, 125I-Cyanopindolol 1.64238 nM, mean
  fmol 125I-Cyanopindolol/mg sample: 1986.27 fmol/mg sample
Wild-Type, 0.0283 nM, Average
  125I-Cyanopindolol saturation binding signal: 144.50
Wild-Type, 0.0283 nM, Fit
  125I-Cyanopindolol saturation binding signal: 400.71
Wild-Type, 0.0474 nM, Average
  125I-Cyanopindolol saturation binding signal: 627.51
Wild-Type, 0.0474 nM, Fit
  125I-Cyanopindolol saturation binding signal: 590.99
Wild-Type, 0.10 nM, Average
  125I-Cyanopindolol saturation binding signal: 1200.07
Wild-Type, 0.10 nM, Fit
  125I-Cyanopindolol saturation binding signal: 964.14
Wild-Type, 1.85 nM, Average
  125I-Cyanopindolol saturation binding signal: 2740.91
Wild-Type, 1.85 nM, Fit
  125I-Cyanopindolol saturation binding signal: 2640.83
Wild-Type, 1.85 nM, experiments 1-3
  125I-Cyanopindolol saturation binding signal: 2770.91 and 2891.39 and 2560.43
Wild-Type, 125I-Cyanopindolol 0.0198458 nM (Average)
  fmol 125I-Cyanopindolol/mg sample, Fit: 3.84E+02 fmol/mg sample
Wild-Type, 125I-Cyanopindolol 0.0420593 nM (Average)
  fmol 125I-Cyanopindolol/mg sample, Fit: 7.28E+02 fmol/mg sample
Wild-Type, 125I-Cyanopindolol 0.234223 nM (Average)
  fmol 125I-Cyanopindolol/mg sample, Fit: 1.65E+03 fmol/mg sample
Wild-Type, 125I-Cyanopindolol 0.468204 nM (Average)
  fmol 125I-Cyanopindolol/mg sample, Fit: 1.86E+03 fmol/mg sample
Wild-Type, 125I-Cyanopindolol 0.871756 nM (Average)
  fmol 125I-Cyanopindolol/mg sample, Fit: 1.97E+03 fmol/mg sample
Wild-Type, 125I-Cyanopindolol 1.70257 nM (Average)
  fmol 125I-Cyanopindolol/mg sample, Fit: 2.02E+03 fmol/mg sample
Wild-Type
  Bmax: 2241.12 and 1916.49 and 2106.37
Wild-Type, mean
  Bmax: 2087.99
